From USRE37101E, “Stabilized phosphate ester-based functional fluid compositions” (Solutia Inc., priority 1997, dated 2001)

Tests used:
[1] = fresh or as designated
[2] = tested on: rats; details: subchronic

SMILES | Independent Lab Cond. [1] | NOEL ([2]; bladder hyperplasia, rats) | Bladder Hyperplasia (finding) ([2]; in rats >5000 ppm)
CCCCOP(=O)(OCCCC)Oc1ccccc1 [DBPP, dibutyl phenyl phosphate, reference compound] | 0.008 μMHO/cm | – | –
CC(C)COP(=O)(OCC(C)C)OCC(C)C [TIBP, triisobutyl phosphate] | 0.001 μMHO/cm | 5000 ppm | None observed
